The source of these data is patent publication US11179389B2, “Purine inhibitors of human phosphatidylinositol 3-kinase delta” (Merck Sharp & Dohme Corp., priority 2017, dated 2021).

As a reminder, the IC50 is the concentration that gives 50% inhibition.

The target in one test is PI3Kalpha (Homo sapiens (Human), UniProt P42336). The test is described as follows: HTRF PI3K biochemical assay, alpha isoform (for selectivity ratio). To be noted: ratio PI3K-alpha IC50 value / PI3K-delta IC50 value. From the text: (§1) HTRF PI3K Biochemical Assay to Measure Intrinsic Potency of Compound Inhibitors
(§2) The PI3-Kinase biochemical assays were developed to measure the intrinsic potency and compound dependent inhibition of the alpha, beta, delta, and gamma PI3K isoform enzymes. This assay was developed and further optimized from a kit produced by Upstate (Millipore catalog #33-047) (Millipore Sigma. Billerica Mass., USA) and has been configured for high throughput screening (HTS) and structure-activity relationship (SAR) screening. Briefly, this procedure exploits the exquisite specificity and high affinity binding of enzyme reaction […] phosphatidyl(3,4,5)triphosphate (PIP3) to the GRP1 pleckstrin homology (PH) domain to generate the signal. In the absence of PIP3, an HTRF (Homogeneous Time-Resolved Fluorescence energy transfer) complex is formed consisting of europium (Eu)-labeled anti-GST, GSTtagged GRP1-PH domain, biotin-PIP3 (biotinylated-PIP3) and streptavidin conjugated APC (Allophycocyanin). The native PIP3 produced by PI3-Kinase activity disrupts in a competitive manner the biotin-PIP3 from the pleckstrin homology (PH) domain, resulting in the loss of energy transfer (HTRF complex) and a decrease in the signal. The format of this assay is the same for all 4 isoforms of PI3K; the differences lie in the concentration of enzyme used to achieve robust assay window. The alpha, beta, and delta assays are run at 0.5, 1, and 0.3 nM enzymes and the gamma assay is run at 5 nM enzyme. The ATP concentration is 100 uM in the alpha, beta, and delta assays and 50 uM adenosine triphosphate (ATP) in the gamma assay. All reactions are run at 5 uM PIP2.
(§3) Compounds are serially diluted (3-fold in 100% DMSO) across a 384-well polypropylene source plated from column 3 to column 12 and column 13 to column 22, to yield 10 concentration dose response for each test compound. Columns 1, 2, 23 and 24 contain either only DMSO or pharmacological known control inhibitor. Once titrations are made, 2.5 nL of the compounds on 384 well plates are reformatted and transferred by acoustic dispense in quadruplicates to a 1536 assay plate (Greiner) to assay across all four PI3K isoform enzymes.
(§4) The PI3-Kinase biochemical assay was optimized using the HTRF kit provided by Upstate (Millipore). The assay kit contains six reagents: 1) 4×Reaction Buffer; 2) native PIP2 (substrate); 3) Stop (EDTA); 4) Detection Mix A (Streptavidin-APC); 5) Detection Mix B (Eu-labeled Anti-GST plus GST-tagged PH-domain): 6) Detection Mix C. In addition, the following items were obtained or purchased; PI3Kinase (catalog #'s alpha 14-602, beta 14-603, gamma 14-558 and delta 14-604 from Upstate Biotechnology now EMD Millipore, Mahopac, N.Y., USA), dithiothreitol (Sigma-Aldrich Corp. (St. Louis, Mo., USA) Catalog #D-5545), Adenosine-5′ triphosphate (InVitrogen (Waltham, Mass., USA), Cat#AS001 Å), native PIP3 (PI(3,4,5)P3, diC8, H^+, CELLSIGNALS, INC., (Columbus, Ohio, USA) Cat #907) DMSO ((Sigma-Aldrich Corp. (St. Louis. Mo., USA) Catalog #472301).
(§5) PI3Kinase Reaction Buffer is prepared by dilution the stock 1:4 with de-ionized water. DTT (DL-Dithiothreitol), phosphatidylinositol 4,5-bisphosphate (PIP2) and Biotin-PIP3 were added to 1536 assay plate at a final concentration of 5 mM, […] and 25 nM on the day of use. Enzyme addition and compound pre-incubation are initiated by the addition of 1.25 ul of PI3K (at twice its final concentration) in the 1× reaction buffer to all wells using a BioRaptor™. Plates are incubated at room temperature for 15 minutes. Reactions are initiated by addition of 1.25 ul of 2× substrate solution (PIP2 and ATP in 1× reaction buffer) using BioRaptor™. Plates are incubated in humidified chamber at room temperature for one hour. Reactions are quenched by addition of 0.625 uL of stop solution to all wells using the BioRaptor™. […]
Background: In TR-FRET formats the signal depends on donor and acceptor labels being close together.

For the next test, the target named is PI3Kdelta (Homo sapiens (Human), UniProt O00329). The test is described as follows: HTRF PI3K biochemical assay, delta isoform. To be noted: 0.3 nM enzyme, 100 uM ATP, 5 uM PIP2, form screened per table (Neutral or TFA salt).
Text: as §1, §2, §3, §4, §5

Structures are written as SMILES.

Sequence of PI3Kalpha (P42336 whole entry, canonical isoform): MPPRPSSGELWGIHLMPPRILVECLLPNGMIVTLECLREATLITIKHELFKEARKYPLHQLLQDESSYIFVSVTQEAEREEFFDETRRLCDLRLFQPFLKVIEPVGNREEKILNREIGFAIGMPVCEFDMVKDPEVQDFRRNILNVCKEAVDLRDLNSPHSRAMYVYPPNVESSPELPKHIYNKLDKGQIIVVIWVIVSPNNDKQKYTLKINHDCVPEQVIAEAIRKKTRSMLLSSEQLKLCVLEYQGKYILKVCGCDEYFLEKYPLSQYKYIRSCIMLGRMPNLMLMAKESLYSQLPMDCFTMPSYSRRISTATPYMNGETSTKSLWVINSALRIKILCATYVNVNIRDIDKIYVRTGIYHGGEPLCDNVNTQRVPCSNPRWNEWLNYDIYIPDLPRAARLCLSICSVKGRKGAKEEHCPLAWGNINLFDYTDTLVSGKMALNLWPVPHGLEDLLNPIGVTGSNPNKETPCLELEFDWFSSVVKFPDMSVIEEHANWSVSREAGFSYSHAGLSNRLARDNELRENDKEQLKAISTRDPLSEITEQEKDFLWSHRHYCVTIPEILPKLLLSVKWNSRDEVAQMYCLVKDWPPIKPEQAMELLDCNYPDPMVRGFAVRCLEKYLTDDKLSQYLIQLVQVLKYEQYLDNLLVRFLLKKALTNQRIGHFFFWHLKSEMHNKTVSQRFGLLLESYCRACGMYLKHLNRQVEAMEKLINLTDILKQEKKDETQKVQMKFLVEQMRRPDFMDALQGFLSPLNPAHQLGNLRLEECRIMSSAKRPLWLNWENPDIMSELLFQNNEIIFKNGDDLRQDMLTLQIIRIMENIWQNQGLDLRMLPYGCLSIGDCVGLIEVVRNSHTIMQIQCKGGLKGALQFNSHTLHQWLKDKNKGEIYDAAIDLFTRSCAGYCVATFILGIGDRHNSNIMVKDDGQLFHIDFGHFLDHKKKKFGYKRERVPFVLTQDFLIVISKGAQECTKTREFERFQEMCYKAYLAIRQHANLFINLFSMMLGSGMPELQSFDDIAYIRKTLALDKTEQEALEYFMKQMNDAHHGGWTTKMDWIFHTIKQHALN
Sequence of PI3Kalpha (P27986 whole entry partner, canonical isoform): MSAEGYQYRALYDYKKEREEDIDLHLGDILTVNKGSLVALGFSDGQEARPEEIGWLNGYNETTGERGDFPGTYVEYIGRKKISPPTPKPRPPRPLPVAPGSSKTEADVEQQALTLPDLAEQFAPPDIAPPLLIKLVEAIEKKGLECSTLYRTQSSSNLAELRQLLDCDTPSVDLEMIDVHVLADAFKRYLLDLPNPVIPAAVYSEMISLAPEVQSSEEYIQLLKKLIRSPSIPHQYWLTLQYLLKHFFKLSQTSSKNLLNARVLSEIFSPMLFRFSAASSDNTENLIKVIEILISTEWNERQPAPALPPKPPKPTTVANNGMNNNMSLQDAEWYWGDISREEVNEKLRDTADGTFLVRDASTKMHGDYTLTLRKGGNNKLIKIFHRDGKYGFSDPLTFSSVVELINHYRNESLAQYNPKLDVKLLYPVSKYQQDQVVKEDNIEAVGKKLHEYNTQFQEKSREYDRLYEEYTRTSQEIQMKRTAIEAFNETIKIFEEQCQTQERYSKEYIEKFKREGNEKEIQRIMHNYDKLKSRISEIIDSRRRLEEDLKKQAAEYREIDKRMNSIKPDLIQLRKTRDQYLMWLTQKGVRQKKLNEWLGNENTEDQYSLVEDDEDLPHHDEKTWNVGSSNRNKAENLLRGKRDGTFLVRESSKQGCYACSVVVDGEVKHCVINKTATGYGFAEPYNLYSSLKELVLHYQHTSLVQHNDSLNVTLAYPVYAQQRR
Sequence of PI3Kdelta (O00329 whole entry, canonical isoform): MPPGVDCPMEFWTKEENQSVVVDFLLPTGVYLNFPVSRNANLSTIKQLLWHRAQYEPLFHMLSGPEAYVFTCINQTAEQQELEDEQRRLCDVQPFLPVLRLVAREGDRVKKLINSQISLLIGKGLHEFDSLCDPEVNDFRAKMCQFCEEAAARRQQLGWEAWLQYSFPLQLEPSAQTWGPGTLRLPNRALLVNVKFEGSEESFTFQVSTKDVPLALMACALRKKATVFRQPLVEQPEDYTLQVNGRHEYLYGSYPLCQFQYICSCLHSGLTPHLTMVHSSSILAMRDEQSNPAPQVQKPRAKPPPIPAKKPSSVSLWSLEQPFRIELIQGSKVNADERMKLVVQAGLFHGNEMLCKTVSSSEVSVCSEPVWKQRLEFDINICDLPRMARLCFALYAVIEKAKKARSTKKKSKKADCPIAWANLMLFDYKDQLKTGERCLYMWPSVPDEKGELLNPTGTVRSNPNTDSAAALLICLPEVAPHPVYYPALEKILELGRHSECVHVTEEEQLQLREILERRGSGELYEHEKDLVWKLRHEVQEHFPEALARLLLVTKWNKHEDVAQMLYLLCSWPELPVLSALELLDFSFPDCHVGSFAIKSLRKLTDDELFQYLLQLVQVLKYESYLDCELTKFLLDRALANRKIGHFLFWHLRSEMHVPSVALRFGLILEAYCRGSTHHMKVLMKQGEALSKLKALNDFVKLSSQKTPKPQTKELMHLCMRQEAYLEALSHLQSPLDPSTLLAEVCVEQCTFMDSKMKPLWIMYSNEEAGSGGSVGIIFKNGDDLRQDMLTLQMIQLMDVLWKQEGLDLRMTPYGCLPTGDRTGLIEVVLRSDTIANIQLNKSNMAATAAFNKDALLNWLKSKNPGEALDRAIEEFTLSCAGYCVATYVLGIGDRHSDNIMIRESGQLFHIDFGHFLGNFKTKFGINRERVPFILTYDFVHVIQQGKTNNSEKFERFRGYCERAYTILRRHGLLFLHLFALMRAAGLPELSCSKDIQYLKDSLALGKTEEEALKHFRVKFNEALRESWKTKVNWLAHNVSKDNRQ
Sequence of PI3Kdelta (P27986 whole entry partner, canonical isoform): as the sequence (P27986 whole entry partner, canonical isoform) above

On to `Cn1cc(-c2nc(N3CCC4(CC3)CNC(=O)N4CC(F)(F)F)cnc2C#N)cn1` [Compound 1-11, 3-(1-methyl-1H-pyrazol-4-yl)-5-[2-oxo-1-(2,2,2-trifluoroethyl)-1,3,8-triazaspiro[4.5]dec-8-yl]pyrazine-2-carbonitrile], for which the “Selectivity versus PI3Kalpha” value on PI3Kalpha is on record as over 10. The IC50 at PI3Kdelta was determined as 32 nM.
In the case of `N#Cc1ncc(N2CCC3(CC2)COC(=O)N3CC2CC2)nc1-c1cnn(C(F)F)c1` [Compound 1-12, 5-[1-(cyclopropylmethyl)-2-oxo-3-oxa-1,8-diazaspiro[4.5]dec-8-yl]-3-[1-(difluoromethyl)-1H-pyrazol-4-yl]pyrazine-2-carbonitrile], the “Selectivity versus PI3Kalpha” value at PI3Kalpha is given as over 10. The IC50 on PI3Kdelta came to 54 nM.
Turning to `C[C@@H]1CN(c2cnc(C#N)c(-c3cnn(C)c3)n2)CCN1C(=O)C1(C)CC1` [Compound 1-31, 5-{(3R)-3-methyl-4-[(1-methylcyclopropyl)carbonyl]piperazin-1-yl}-3-(1-methyl-1H-pyrazol-4-yl)pyrazine-2-carbonitrile], at PI3Kalpha, the “Selectivity versus PI3Kalpha” value is recorded as over 10. For the same molecule, the half-inhibitory concentration (IC50) on PI3Kdelta stood at 280 nM.
As for `Cn1cc(-c2nc(N3CCC4(CCC(=O)N4CC(F)(F)F)CC3)cnc2C#N)cn1` [Compound 1-21, 3-(1-methyl-1H-pyrazol-4-yl)-5-[2-oxo-1-(2,2,2-trifluoroethyl)-1,8-diazaspiro[4.5]dec-8-yl]pyrazine-2-carbonitrile], the “Selectivity versus PI3Kalpha” value at PI3Kalpha was over 10. Besides, on PI3Kdelta, the IC50 amounted to 37 nM.
In the case of `CN(C)CCN1CC2(CCN(c3cnc(C#N)c(-c4cnn(C)c4)n3)CC2)N(CC2CC2)C1=O` [Compound 1-4, 5-{1-(cyclopropylmethyl)-3-[2-(dimethylamino)ethyl]-2-oxo-1,3,8-triazaspiro[4.5]dec-8-yl}-3-(1-methyl-1H-pyrazol-4-yl)pyrazine-2-carbonitrile], the “Selectivity versus PI3Kalpha” value on PI3Kalpha is over 10. For the same molecule, the half-inhibitory concentration (IC50) at PI3Kdelta worked out at 10 nM.
Turning to `CCC1C(=O)NCC12CCN(c1cnc(C#N)c(-c3cnn(C)c3)n1)CC2` (single isomer, unassigned) [Compound 1-8, 5-(4-ethyl-3-oxo-2,8-diazaspiro[4.5]dec-8-yl)-3-(1-methyl-1H-pyrazol-4-yl)pyrazine-2-carbonitrile], at PI3Kalpha, the “Selectivity versus PI3Kalpha” value is given as over 10. In addition, the half-inhibitory concentration (IC50) at PI3Kdelta is 60 nM.
In the case of `C[C@@H]1CN(c2cnc(C#N)c(-c3cnn(C)c3)n2)CCN1C(=O)[C@@H]1C[C@@H]1F` [Compound 1-29, 5-[(3R)-4-{[(1S,2S)-2-fluorocyclopropyl]carbonyl}-3-methylpiperazin-1-yl]-3-(1-methyl-1H-pyrazol-4-yl)pyrazine-2-carbonitrile], the “Selectivity versus PI3Kalpha” value on PI3Kalpha is over 10. The IC50 at PI3Kdelta worked out at 29 nM.
Consider `COC(=O)N1CCN(c2cnc(C#N)c(-c3cnn(C)c3)n2)C[C@H]1C` [Compound 1-38, methyl (2R)-4-[5-cyano-6-(1-methyl-1H-pyrazol-4-yl)pyrazin-2-yl]-2-methylpiperazine-1-carboxylate], for which the “Selectivity versus PI3Kalpha” value at PI3Kalpha is over 10. At PI3Kdelta, the half-maximal inhibitory concentration (IC50) turned out to be 210 nM.
Take `C[C@@H]1CN(c2cnc(C#N)c(-c3cnn(C)c3)n2)CCN1C(=O)NC1CC1` [Compound 1-16, (2R)-4-[5-cyano-6-(1-methyl-1H-pyrazol-4-yl)pyrazin-2-yl]-N-cyclopropyl-2-methylpiperazine-1-carboxamide]: on PI3Kalpha, the “Selectivity versus PI3Kalpha” value is listed as over 10. For the same molecule, at PI3Kdelta, the IC50 was 280 nM.
Regarding `COCCN1CC2(CCN(c3cnc(C#N)c(-c4cnn(C)c4)n3)CC2)N(CC2CC2)C1=O` [Compound 1-9, 5-[1-(cyclopropylmethyl)-3-(2-methoxyethyl)-2-oxo-1,3,8-triazaspiro[4.5]dec-8-yl]-3-(1-methyl-1H-pyrazol-4-yl)pyrazine-2-carbonitrile], the “Selectivity versus PI3Kalpha” value at PI3Kalpha was over 10. The half-inhibitory concentration (IC50) on PI3Kdelta turned out to be 18 nM.
Turning to `Cn1cc(-c2nc(N3CCC4(CCC(=O)N4CC4CC4)CC3)cnc2C#N)cn1` [Compound 1-1, 5-[1-(cyclopropylmethyl)-2-oxo-1,8-diazaspiro[4.5]dec-8-yl]-3-(1-methyl-1H-pyrazol-4-yl)pyrazine-2-carbonitrile], on PI3Kalpha, the “Selectivity versus PI3Kalpha” value is recorded as over 10. Further, the half-maximal inhibitory concentration (IC50) on PI3Kdelta stood at 5.4 nM.
For `Cn1cc(-c2nc(N3CCC(C)(N4CCCCC4)CC3)cnc2C#N)cn1` [Compound 1-26, 5-(4′-methyl-1,4′-bipiperidin-1′-yl)-3-(1-methyl-1H-pyrazol-4-yl)pyrazine-2-carbonitrile], on PI3Kalpha, the “Selectivity versus PI3Kalpha” value is on record as over 10. For the same molecule, the concentration for half-maximal inhibition (IC50) at PI3Kdelta came to 70 nM.
For the molecule `C[C@@H]1CN(c2cnc(C#N)c(-c3cnn(C)c3)n2)CCN1C(=O)N1CC2(COC2)C1` [Compound 1-33, 5-[(3R)-3-methyl-4-(2-oxa-6-azaspiro[3.3]hept-6-ylcarbonyl)piperazin-1-yl]-3-(1-methyl-1H-pyrazol-4-yl)pyrazine-2-carbonitrile], the “Selectivity versus PI3Kalpha” value on PI3Kalpha is over 10. Besides, the concentration for half-maximal inhibition (IC50) at PI3Kdelta turned out to be 300 nM.
`Cn1cc(-c2nc(N3CCC4(CC3)NC(=O)OC4CC3CC3)cnc2C#N)cn1` (single isomer, unassigned) [Compound 1-7, 5-[4-(cyclopropylmethyl)-2-oxo-3-oxa-1,8-diazaspiro[4.5]dec-8-yl]-3-(1-methyl-1H-pyrazol-4-yl)pyrazine-2-carbonitrile]: the “Selectivity versus PI3Kalpha” value at PI3Kalpha was over 10. The 50% inhibitory concentration (IC50) on PI3Kdelta is 55 nM.
For the molecule `C[C@@H]1CN(c2cnc(C#N)c(-c3cnn(C)c3)n2)CCN1C(=O)C1CC1` [Compound 1-15, 5-[(3R)-4-(cyclopropylcarbonyl)-3-methylpiperazin-1-yl]-3-(1-methyl-1H-pyrazol-4-yl)pyrazine-2-carbonitrile], at PI3Kalpha, the “Selectivity versus PI3Kalpha” value is over 10. Moreover, the IC50 at PI3Kdelta is 33 nM.
In the case of `CCC(=O)N1CCN(c2cnc(C#N)c(-c3cnn(C)c3)n2)C[C@H]1C` [Compound 1-30, 5-[(3R)-3-methyl-4-propanoylpiperazin-1-yl]-3-(1-methyl-1H-pyrazol-4-yl)pyrazine-2-carbonitrile], the “Selectivity versus PI3Kalpha” value on PI3Kalpha is over 10. Further, the half-inhibitory concentration (IC50) on PI3Kdelta was found to be 150 nM.
Regarding `Cn1cc(-c2nc(N3CCC(C)(N4CCOCC4)CC3)cnc2C#N)cn1` [Compound 1-25, 5-(4-methyl-4-morpholin-4-ylpiperidin-1-yl)-3-(1-methyl-1H-pyrazol-4-yl)pyrazine-2-carbonitrile], the “Selectivity versus PI3Kalpha” value on PI3Kalpha is on record as over 10. Moreover, the IC50 on PI3Kdelta is 52 nM.
With `C[C@@H]1C[C@H]1C(=O)N1CCN(c2cnc(C#N)c(-c3cn[nH]c3)n2)C[C@H]1C` [Compound 1-39, 5-[(3R)-3-methyl-4-{[(1R,2R)-2-methylcyclopropyl]carbonyl}piperazin-1-yl]-3-(1H-pyrazol-4-yl)pyrazine-2-carbonitrile], at PI3Kalpha, the “Selectivity versus PI3Kalpha” value is given as over 10. At PI3Kdelta, the IC50 was 50 nM.
With `Cn1cc(-c2nc(N3CCC4(CC3)COC(=O)N4CC3CCC3)cnc2C#N)cn1` [Compound 1-23, 5-[1-(cyclobutylmethyl)-2-oxo-3-oxa-1,8-diazaspiro[4.5]dec-8-yl]-3-(1-methyl-1H-pyrazol-4-yl)pyrazine-2-carbonitrile], the “Selectivity versus PI3Kalpha” value at PI3Kalpha is over 10. In addition, the IC50 at PI3Kdelta was 18 nM.
On to `Cn1cc(-c2nc(N3CCC4(CC3)COCC(=O)N4CC3CC3)cnc2C#N)cn1` [Compound 1-24, 5-[1-(cyclopropylmethyl)-2-oxo-4-oxa-1,9-diazaspiro[5.5]undec-9-yl]-3-(1-methyl-1H-pyrazol-4-yl)pyrazine-2-carbonitrile], for which, on PI3Kalpha, the “Selectivity versus PI3Kalpha” value is recorded as over 10. For the same molecule, the IC50 at PI3Kdelta is 10 nM.
